One data set deals with T1, VEGF-R2 kinase (Rattus norvegicus, UniProt O08775).
T1 construct: polyhistidine (N)
The data set can be described thus: VEGF-R2 Kinase Screening Assay. The following applies: soluble rat VEGF-R2 kinase, 10 μM ATP; read-out: VEGF-R IC50. The data set is classed as biochemical. The method, then: (§1) A kinase reaction mixture was prepared containing 50 mM Tris-HCl pH=8, 10 mM MgCl2, 0.1 mM Na3PO4, 1 mM DTT, 10 μM ATP, 0.025 uM biotinylated peptide substrate and 0.8 μCuries per well^33P-γ-ATP [2000–3000 Ci/mmol]. 70 μL of the kinase reaction mixture was dispensed into the well of a streptavidin coated FlashPlate™ (Cat. #SMP103, NEN, Boston, Mass.). 1 μL of test compound stock in 100% DMSO was added to the wells resulting in a final concentration of 1% DMSO in the mixture with a 100 μL final reaction volume. Soluble rat VEGF-R2 kinase^3 was diluted in 50 mM Tris-HCl pH=8.0, 0.1% BSA at a concentration of 5 ng per microliter and 30 μL (150 ng enzyme per test well) was added to each well to initiate the reaction. The reaction was incubated for one hour at 30° C. At the end of the 1-hour incubation, the reaction was terminated by aspirating the reaction mixture from the plate and washing the wells twice with PBS containing 100 mM EDTA. The PLC1 biotinylated peptide substrate became immobilized on the Flashplate™ and the incoporation of ^33P-γ-ATP was measured by reading the plate on a scintillation counter. Inhibition of the enzymatic activity of the VEGF-R was measured by observing a reduced amount of ^33P-γ-ATP incorporated into the immobilized peptide. ^3VEGF-R2 kinase (Vascular Endothelial Growth Factor Receptor-2): a fusion protein containing a polyhistidine tag at the N-terminus followed by amino acids 786–1343 of the rat VEGF-R2 kinase domain GenBank Accession #U93306); Peptide Substrate (Biotin)KHKKLAEGSAYEEV-Amide
(§2) IC50 values listed as >10 or >100 indicate no observed 50% inhibition at the highest dose tested, nor was an inhibition maximum observed.

In a further data set the target is T2, CDK1:Cyclin-B (Homo sapiens, UniProt P06493).
T2 construct: purchased New England Biolabs, Beverly, Mass; (CDK1); BIOMOL, Plymouth Meeting, Pa; (Cyclin-B) #6020 (CDK1); #SE-195 (Cyclin-B); host or cells: insect cells
The data set can be described thus: CDK1 Screening Assay. The data set is classed as biochemical. The following applies: 10 μM ATP, histone-H1 peptide substrate, 1 hour at 30° C. As for the experimental part:
(§3) A kinase reaction mixture was prepared containing 50 mM Tris-HCl pH=8, 10 mM MgCl2, 0.1 mM Na3PO4, 1 mM DTT, 10 μM ATP, 0.025 μM biotinylated histone-H1 peptide substrate and 0.2 μCuries per well^33P-γ-ATP [2000–3000 Ci/mmol]. 70 μL of the kinase reaction mixture was dispensed into the well of a streptavidin coated FlashPlate™ (Cat. #SMP103, NEN, Boston, Mass.). Then 1 μL of test compound stock in 100% DMSO was added to the wells resulting in a final concentration of 1% DMSO in the reaction with a 100 μL final reaction volume. CDK1:Cyclin-B protein^1 was diluted in 50 mM Tris-HCl pH=8.0, 0.1% BSA at a concentration of 1 ng per microliter. 30 μL (30 ng enzyme per test well) was added to each well to initiate the reaction, The reaction was incubated for one hour at 30° C. At the end of the 1-hour incubation, the reaction was terminated by aspirating the reaction mixture from the plate and washing the wells twice with PBS containing 100 mM EDTA. The histone-H1 biotinylated peptide substrate became immobilized on the Flashplate™ and the incorporation of ^33P-γ-ATP was measured by reading the plate on a scintillation counter. Inhibition of the enzymatic activity of CDK1 was measured by observing a reduced amount of ^33P-γ-ATP incorporated into the immobilized peptide. ^1CDK1 (cyclin dependent kinase 1) was isolated from insect cells expressing both the human CDK1 catalytic subunit and its positive regulatory subunit Cyclin B (CDK1: New England Biolabs, Beverly, Mass., Cat. #6020; Cyclin-B: BIOMOL, Plymouth Meeting, Pa., Cat. #SE-195); Peptide Substrate (Biotin)KTPKKAKKPKTPKKAKKL-Amide.
as §2

For the next data set, the target named is T3, CDK2:Cyclin-E (Homo sapiens, UniProt P24941).
T3 construct: purchased Upstate Biotechnology, Lake Placid, N.Y
The data set can be described thus: CDK2 Screening Assay. The data set is classed as biochemical. The following applies: 10 μM ATP, histone-H1 peptide substrate. As for the experimental part: as §3
Using the procedure and materials of Example 1, replacing CDK1:Cyclin-B protein with CDK2:Cyclin-E protein^2, the IC50 data for CDK2 is shown in Table 2. ^2CDK2 (cyclin dependent kinase 2) in complex with cyclin E is commercially available (Upstate Biotechnology, Lake Placid, N.Y.); Peptide Substrate (Biotin)KTPKKAKKPKTPKKAKKL-Amide
IC50 values listed as ˜100 indicate no observed 50% inhibition at the highest dose tested, nor was an inhibition maximum observed.

The target of a further data set is T4, HER2 kinase (Homo sapiens, UniProt P04626).
T4 construct: polyhistidine (N); 24 additional non-native amino acids (between the His tag and HER2) (N)
The data set can be described thus: HER-2 Kinase Screening Assay. The data set is classed as biochemical. The following applies: HER2 cytoplasmic domain construct, 10 μM ATP. The method, then:
as §1
Using the procedure and materials of Example 3, replacing VEGF-R2 kinase with HER2^4, the IC50 data for HER2 kinase is shown in Table 4. ^4HER2 (Human Epidermal Growth Factor Receptor-2): a construct containing a polyhistidine tag at the N-terminus followed by 24 additional non-native amino acids beginning at amino acid 676 (Accession number M11730) followed by the remainder of the HER2 cytoplasmic domain; Peptide Substrate (Biotin)KHKKLAEGSAYEEV-Amide.
IC50 values listed as >100 indicate no observed 50% inhibition at the highest dose tested, nor was an inhibition maximum observed.

The subject of a further data set is HCT-116 colon carcinoma. Kind of data set: Inhibition of Cell Proliferation (14C-thymidine incorporation), HCT-116. The following applies: Homo sapiens. The data set is classed as cell-based. The method, then: (§4) The ability of a test compound to inhibit the proliferation of cell growth was determined by measuring incorporation of ^14C-labelled thymidine into newly synthesized DNA within the cells. This method was used on cell lines derived from carcinomas originating from several tissues such as HeLa cervical adenocarcinoma (American Type Culture Collection (ATCC), Virginia, Cat. #CCL-2), HCT-116 colon carcinoma (CCL-247), MDA-MB-231 (Xenogen Corp.), PC-3 prostate adenocarcinoma (ATCC CRL-1435) and A375 malignant melanoma (ATCC CRL-1619).
(§5) Using this method, the effect of a compound on cell growth for cells with many different phenotypes can be determined. Cells were trypsinized and counted and 3000–8000 cells were added to each well of a 96-well CytoStar tissue culture treated scintillating microplate (Amersham #RPNQ0160) in complete medium in a volume of 100 μl. Cells were incubated for 24 hours in complete medium at 37° C. in an atmosphere containing 5% CO2. 1 μL of test compound in 100% DMSO was then added to the wells of the plate. DMSO only was added to control wells. Cells were incubated for 24 more hours in complete medium at 37° C. in an atmosphere containing 5% CO2. […] The degree of methyl ^14C-thymidine incorporation was quantified on a Packard Top Count.

The next data set concerns A375 malignant melanoma. The data set can be described thus: Inhibition of Cell Proliferation (14C-thymidine incorporation), A375. The data set is classed as cell-based. The following applies: Homo sapiens, A-375. As for the experimental part:
as §4, §5
On the technique in general: Uptake of a labelled nucleoside into DNA is a usual measure of proliferation.

Data set [1] deals with HeLa cervical adenocarcinoma. The data set can be described thus: Inhibition of Cell Proliferation (14C-thymidine incorporation), HeLa. The following applies: Homo sapiens. The data set is classed as cell-based. As for the experimental part: as §4, §5

The source of these data is patent publication US7109220B2, “Amino substituted pyridinyl methanone compounds useful in treating kinase disorders” (Janssen Pharmaceutica N.V., priority 2003, dated 2006).

What is called IC50 is the point on the concentration scale where inhibition reaches its midpoint. Usually melting point stands for the temperature of the solid-liquid transition.

T2 sequence (P06493 whole entry): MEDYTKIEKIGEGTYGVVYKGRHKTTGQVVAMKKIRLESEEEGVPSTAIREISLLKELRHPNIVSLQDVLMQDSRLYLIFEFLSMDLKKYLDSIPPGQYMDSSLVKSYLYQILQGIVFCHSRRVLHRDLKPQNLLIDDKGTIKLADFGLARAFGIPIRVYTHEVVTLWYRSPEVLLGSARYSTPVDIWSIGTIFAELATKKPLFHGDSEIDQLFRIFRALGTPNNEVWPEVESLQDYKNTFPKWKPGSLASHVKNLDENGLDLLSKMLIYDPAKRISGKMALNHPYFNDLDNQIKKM
T2 sequence (P14635 whole entry partner): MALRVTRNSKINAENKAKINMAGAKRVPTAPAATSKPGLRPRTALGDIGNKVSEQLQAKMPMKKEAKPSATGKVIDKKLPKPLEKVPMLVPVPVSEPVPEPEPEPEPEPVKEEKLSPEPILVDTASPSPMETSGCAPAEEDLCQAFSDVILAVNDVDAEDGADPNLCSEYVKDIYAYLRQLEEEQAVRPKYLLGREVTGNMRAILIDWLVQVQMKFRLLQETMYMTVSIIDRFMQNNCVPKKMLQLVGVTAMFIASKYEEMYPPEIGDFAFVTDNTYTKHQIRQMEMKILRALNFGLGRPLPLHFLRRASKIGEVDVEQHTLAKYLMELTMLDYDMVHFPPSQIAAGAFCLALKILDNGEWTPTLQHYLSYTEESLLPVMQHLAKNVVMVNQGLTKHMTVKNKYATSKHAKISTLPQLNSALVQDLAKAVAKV
T1 sequence (O08775 786-1343): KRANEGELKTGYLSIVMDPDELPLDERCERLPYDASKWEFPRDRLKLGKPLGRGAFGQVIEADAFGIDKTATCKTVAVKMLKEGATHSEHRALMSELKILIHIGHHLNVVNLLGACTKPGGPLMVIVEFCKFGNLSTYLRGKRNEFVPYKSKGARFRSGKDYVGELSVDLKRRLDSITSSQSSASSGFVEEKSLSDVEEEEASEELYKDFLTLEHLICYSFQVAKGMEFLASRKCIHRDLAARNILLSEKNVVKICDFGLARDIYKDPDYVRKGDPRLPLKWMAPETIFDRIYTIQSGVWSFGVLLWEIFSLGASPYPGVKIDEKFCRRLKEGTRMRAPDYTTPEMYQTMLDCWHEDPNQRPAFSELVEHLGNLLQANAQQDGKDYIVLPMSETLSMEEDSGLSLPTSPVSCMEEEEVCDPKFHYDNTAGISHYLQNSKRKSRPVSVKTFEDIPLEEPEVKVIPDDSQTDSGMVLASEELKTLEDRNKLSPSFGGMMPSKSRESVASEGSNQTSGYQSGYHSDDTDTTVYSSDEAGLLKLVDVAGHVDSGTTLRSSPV
T4 sequence (P04626 676-1255 limits assumed): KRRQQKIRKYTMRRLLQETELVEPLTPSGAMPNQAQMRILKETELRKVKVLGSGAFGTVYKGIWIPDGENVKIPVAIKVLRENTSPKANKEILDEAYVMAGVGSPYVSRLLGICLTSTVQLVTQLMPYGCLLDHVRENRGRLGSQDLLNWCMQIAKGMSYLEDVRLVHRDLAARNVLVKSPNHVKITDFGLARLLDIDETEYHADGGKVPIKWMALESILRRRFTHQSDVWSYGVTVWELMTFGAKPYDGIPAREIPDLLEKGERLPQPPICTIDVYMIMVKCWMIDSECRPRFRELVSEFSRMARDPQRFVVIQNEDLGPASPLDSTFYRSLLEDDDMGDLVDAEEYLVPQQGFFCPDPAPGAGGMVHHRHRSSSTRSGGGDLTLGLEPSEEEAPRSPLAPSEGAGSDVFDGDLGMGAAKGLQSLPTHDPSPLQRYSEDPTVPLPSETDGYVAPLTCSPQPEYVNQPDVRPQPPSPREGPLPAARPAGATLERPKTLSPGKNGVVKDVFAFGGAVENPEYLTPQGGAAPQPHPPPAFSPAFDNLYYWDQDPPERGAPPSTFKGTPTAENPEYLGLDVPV

As for `Nc1ccc(C(=O)c2c(F)cccc2F)c(N)n1` [Cpd 1, (2,6-diamino-3-pyridinyl)(2,6-difluorophenyl)methanone], the melting point was in the range of 179 to 181 °C. Moreover, the IC50 on VEGF-R2 kinase was above 10 µM.
The matching figures for `N#Cc1ccc(Nc2ccc(C(=O)c3c(F)cccc3F)c(N)n2)cc1` [Cpd 8, 4-[[6-amino-5-(2,6-difluorobenzoyl)-2-pyridinyl]amino]benzonitrile]: 208 to 210 °C (dec.) and above 10 µM.
`Nc1nc(Nc2ccc([N+](=O)[O-])cc2)ccc1C(=O)c1c(F)cccc1F` [Cpd 9, [2-amino-6-[(4-nitrophenyl)amino]-3-pyridinyl](2,6-difluorophenyl)methanone]: the melting point lay in the range of 220 to 225 °C. In addition, the IC50 on VEGF-R2 kinase was above 10 µM.
With `CCCCOc1cc(N)nc(N)c1C(=O)c1c(F)cccc1F` [Cpd 31, (2,6-Diamino-4-butoxy-pyridin-3-yl)-(2,6-difluoro-phenyl)-methanone], the IC50 came out at 40.2 µM at VEGF-R2 kinase, 1.16 µM on CDK1:Cyclin-B, 1.32 µM at CDK2:Cyclin-E and 1.14 µM on HER2 kinase.
The like results for `CCCCOc1cc(NC(=O)Nc2ccccc2)nc(N)c1C(=O)c1c(F)cccc1F` [Cpd 32, 1-[6-Amino-4-butoxy-5-(2,6-difluoro-benzoyl)-pyridin-2-yl]-3-phenyl-urea] were, in that order, above 100 µM, above 100 µM, at least 100 µM and above 100 µM.
For `CCCCOc1cc(NC(=S)Nc2ccccc2)nc(N)c1C(=O)c1c(F)cccc1F` [Cpd 33, 1-[6-Amino-4-butoxy-5-(2,6-difluoro-benzoyl)-pyridin-2-yl]-3-phenyl-thiourea], the IC50 on VEGF-R2 kinase was above 100 µM; against CDK1:Cyclin-B, above 100 µM; against CDK2:Cyclin-E it was at least 100 µM; on HER2 kinase it was above 100 µM.
Take `CCCCOc1cc(NC(=O)c2ccccc2)nc(N)c1C(=O)c1c(F)cccc1F` [Cpd 34, N-[6-Amino-4-butoxy-5-(2,6-difluoro-benzoyl)-pyridin-2-yl]-benzamide]: the concentration for half-maximal inhibition (IC50) at VEGF-R2 kinase was above 100 µM; on CDK1:Cyclin-B it was above 100 µM; against CDK2:Cyclin-E it was at least 100 µM; against HER2 kinase, above 100 µM.
For `CCCCOc1cc(Nc2ccc(S(=O)(=O)N(C)C)cc2)nc(N)c1C(=O)c1c(F)cccc1F` [Cpd 35, 4-[6-Amino-4-butoxy-5-(2,6-difluoro-benzoyl)-pyridin-2-ylamino]-N,N-dimethyl-benzenesulfonamide], the IC50 at VEGF-R2 kinase is above 100 µM; at CDK1:Cyclin-B, around 1 µM; against CDK2:Cyclin-E, 0.62 µM; on HER2 kinase, above 100 µM.
Take `CCCCOc1cc(Nc2ccc(S(N)(=O)=O)cc2)nc(N)c1C(=O)c1c(F)cccc1F` [Cpd 36, 4-[6-Amino-4-butoxy-5-(2,6-difluoro-benzoyl)-pyridin-2-ylamino]-benzenesulfonamide]: the IC50 in the data set on HCT-116 colon carcinoma is 6.78 µM; at VEGF-R2 kinase it was above 100 µM; against CDK1:Cyclin-B, 0.28 µM; in the data set on A375 malignant melanoma it was 2.96 µM; in data set [1], 10.7 µM; against CDK2:Cyclin-E, 0.07 µM. The same compound had an IC50 against HER2 kinase of 1 µM.
